From patent publication US20260001875A1, “AMINOPYRIMIDINYL DERIVATIVES FOR THE TREATMENT OF PARKINSON'S DISEASE” (UNIVERSITY OF DUNDEE, priority 2022, published 2026)

Tests used:
Conditions in all cases: Mus musculus
[1] = test system: Rab10 pThr73; test: Rab10 Thr73 dephosphorylation (immunoblot) in WT MEFs; type: cell-based, mouse
Method in brief: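 Wild-type mouse embryonic fibroblasts in 6-well plates were treated with LRRK2 PROTACs, with two biological replicates per condition. Cells were washed in PBS and lysed on ice in buffer containing phosphatase and protease inhibitors plus 1% Triton X-100, then clarified at 15,000 g. Rab10 Thr73 phosphorylation was measured by quantitative immunoblotting of 15 to 20 μg protein on 4-12% Bis-Tris gels.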

[2] = test system: Rab10 pThr73; test: Rab10 Thr73 dephosphorylation (immunoblot) in LRRK2^G2019S MEFs; type: cell-based
[3] = test system: Rab10 pThr73; test: as above; type: cell-based, mouse
[4] = 33 nM/4 h treatment, read-out: pRab10 inhibited in WT MEFs
[5] = 33 nM/24 h treatment, read-out: pRab10 inhibited in WT MEFs
[6] = 1 μM/4 h treatment, read-out: pRab10 inhibited in WT MEFs
[7] = 1 μM/24 h treatment, read-out: pRab10 inhibited in WT MEFs
[8] = 33 nM/4 h treatment, read-out: pRab10 inhibited in LRRK2^G2019S MEFs
[9] = 33 nM/24 h treatment, read-out: pRab10 inhibited in LRRK2^G2019S MEFs
[10] = 1 μM/4 h treatment, read-out: pRab10 inhibited in LRRK2^G2019S MEFs
[11] = 1 μM/24 h treatment, read-out: pRab10 inhibited in LRRK2^G2019S MEFs

SMILES | inhibition at 0.033 µM [1, 4] [%] | inhibition at 0.033 µM [1, 5] [%] | inhibition at 1 µM [1, 6] [%] | inhibition at 1 µM [1, 7] [%] | inhibition at 0.033 µM [2, 8] [%] | inhibition at 0.033 µM [2, 9] [%] | inhibition at 1 µM [3, 10] [%] | inhibition at 1 µM [3, 11] [%] | inhibition at 0.033 µM ([1]; read-out: pRab10 inhibited in WT MEFs, 33 nM/4 h treatment) [%] | inhibition at 0.033 µM ([1]; read-out: pRab10 inhibited in WT MEFs, 33 nM/24 h treatment) [%] | inhibition at 1 µM ([1]; read-out: pRab10 inhibited in WT MEFs, 1 μM/4 h treatment) [%] | inhibition at 1 µM ([1]; read-out: pRab10 inhibited in WT MEFs, 1 μM/24 h treatment) [%] | inhibition at 0.033 µM ([2]; read-out: pRab10 inhibited in LRRK2^G2019S MEFs, 33 nM/4 h treatment) [%] | inhibition at 0.033 µM ([2]; read-out: pRab10 inhibited in LRRK2^G2019S MEFs, 33 nM/24 h treatment) [%] | inhibition at 1 µM ([3]; read-out: pRab10 inhibited in LRRK2^G2019S MEFs, 1 μM/4 h treatment) [%] | inhibition at 1 µM ([3]; read-out: pRab10 inhibited in LRRK2^G2019S MEFs, 1 μM/24 h treatment) [%]
CNc1nc(Nc2ccc(C(=O)N3CCN(CCOCCOCCSC(C)(C)[C@@H](NC(=O)C4(F)CC4)C(=O)N4C[C@H](O)C[C@H]4C(=O)NCc4ccc(-c5scnc5C)cc4)CC3)cc2OC)ncc1C(F)(F)F [XL01078B, (2S,4R)-1-((S)-2-(1-fluorocyclopropane-1-carboxamido)-3-((2-(2-(2-(4-(3-methoxy-4-((4-(methylamino)-5-(trifluoromethyl)pyrimidin-2-yl)amino)benzoyl)piperazin-1-yl)ethoxy)ethoxy)ethyl)thio)-3-methylbutanoyl)-4-hydroxy-N-(4-(4-methylthiazol-5-yl)benzyl)pyrrolidine-2-carboxamide] | 0 to 40 | 0 to 60 | 10 to 95 | 30 to 100 | 0 to 70 | 0 to 90 | 20 to 100 | 10 to 100 |  |  |  |  |  |  |  | 
CNc1nc(Nc2ccc(C(=O)N3CCN(C[C@H](C)SC(C)(C)[C@H](NC(=O)C4(F)CC4)C(=O)N4C[C@H](O)C[C@H]4C(=O)NCc4ccc(-c5scnc5C)cc4)CC3)cc2OC)ncc1Cl [XL01140, (2S,4R)-1-((R)-3-(((S)-1-(4-(4-((5-chloro-4-(methylamino)pyrimidin-2-yl)amino)-3-methoxybenzoyl)piperazin-1-yl)propan-2-yl)thio)-2-(1-fluorocyclopropane-1-carboxamido)-3-methylbutanoyl)-4-hydroxy-N-(4-(4-methylthiazol-5-yl)benzyl)pyrrolidine-2-carboxamide] | 0 to 40 | 0 to 60 | 10 to 95 | 30 to 100 | 0 to 70 | 0 to 90 | 20 to 100 | 10 to 100 |  |  |  |  |  |  |  | 
CNc1nc(Nc2ccc(C(=O)N3CCN(CCCSC(C)(C)[C@H](NC(=O)C4(F)CC4)C(=O)N4C[C@H](O)C[C@H]4C(=O)NCc4ccc(-c5scnc5C)cc4)CC3)cc2OC)ncc1C(F)(F)F [XL01072, (2S,4R)-1-((R)-2-(1-fluorocyclopropane-1-carboxamido)-3-((3-(4-(3-methoxy-4-((4-(methylamino)-5-(trifluoromethyl)pyrimidin-2-yl)amino)benzoyl)piperazin-1-yl)propyl)thio)-3-methylbutanoyl)-4-hydroxy-N-(4-(4-methylthiazol-5-yl)benzyl)pyrrolidine-2-carboxamide] | 0 to 40 | 0 to 60 | 10 to 95 | 30 to 100 | 0 to 70 | 0 to 90 | 20 to 100 | 10 to 100 |  |  |  |  |  |  |  | 
CNc1nc(Nc2ccc(C(=O)N3CCN(CCOCCOCCOCCOCCOc4cc(-c5scnc5C)ccc4CNC(=O)[C@@H]4C[C@@H](O)CN4C(=O)[C@@H](NC(=O)C4(F)CC4)C(C)(C)C)CC3)cc2OC)ncc1Cl [SD79, (2S,4R)—N-(2-((14-(4-(4-((5-chloro-4-(methylamino)pyrimidin-2-yl)amino)-3-methoxybenzoyl)piperazin-1-yl)-3,6,9,12-tetraoxatetradecyl)oxy)-4-(4-methylthiazol-5-yl)benzyl)-1-((S)-2-(1-fluorocyclopropane-1-carboxamido)-3,3-dimethylbutanoyl)-4-hydroxypyrrolidine-2-carboxamide] | 0 to 25 | 10 to 40 | 18 to 90 | 30 to 90 | 0 to 60 | 0 to 70 | 30 to 95 | 30 to 100 |  |  |  |  |  |  |  | 
CNc1nc(Nc2ccc(C(=O)N3CCC4(CCN(CCCSC(C)(C)[C@H](NC(=O)C5(F)CC5)C(=O)N5C[C@H](O)C[C@H]5C(=O)NCc5ccc(-c6scnc6C)cc5)CC4)CC3)cc2OC)ncc1Cl [XL02067B, (2S,4R)-1-((R)-3-((3-(9-(4-((5-chloro-4-(methylamino)pyrimidin-2-yl)amino)-3-methoxybenzoyl)-3,9-diazaspiro[5.5]undecan-3-yl)propyl)thio)-2-(1-fluorocyclopropane-1-carboxamido)-3-methylbutanoyl)-4-hydroxy-N-(4-(4-methylthiazol-5-yl)benzyl)pyrrolidine-2-carboxamide] |  |  |  |  |  |  |  |  | 0 to 70 | 0 to 80 | 80 to 100 | 80 to 100 | 0 to 90 | 30 to 90 | 10 to 100 | 80 to 100
